Test results published in US20220220135A1 (BAR-ILAN UNIVERSITY, priority 2019, published 2022).
Like-named read-outs stand apart in the source and are kept apart here.

Legend:
[1] = molecular target: T1, Human CD39 (NTPDase1) (Homo sapiens, UniProt P49961); test: Inhibition of human CD39 (NTPDase1), 100 μM ADP as substrate; assay type: biochemical; conditions: 100 μM ADP as a substrate
T1 sequence (P49961 1-510): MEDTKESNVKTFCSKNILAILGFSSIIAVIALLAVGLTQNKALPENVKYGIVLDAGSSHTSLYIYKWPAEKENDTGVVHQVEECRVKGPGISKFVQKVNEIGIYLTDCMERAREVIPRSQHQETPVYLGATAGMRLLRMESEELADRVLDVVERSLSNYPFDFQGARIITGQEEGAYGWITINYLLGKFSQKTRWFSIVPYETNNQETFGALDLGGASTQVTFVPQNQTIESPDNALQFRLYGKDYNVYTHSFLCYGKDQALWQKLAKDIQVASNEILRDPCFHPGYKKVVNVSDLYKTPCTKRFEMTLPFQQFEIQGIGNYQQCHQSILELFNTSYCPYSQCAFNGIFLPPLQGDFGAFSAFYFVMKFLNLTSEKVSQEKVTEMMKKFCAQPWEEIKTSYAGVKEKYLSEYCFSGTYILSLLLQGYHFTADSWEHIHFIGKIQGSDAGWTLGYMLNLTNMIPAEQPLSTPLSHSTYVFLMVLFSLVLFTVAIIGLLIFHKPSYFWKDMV

[2] = molecular target: T2, human NPP3 (Homo sapiens, UniProt O14638); test: Inhibition of human NPP3, 100 μM p-Nph-5′-TMP as substrate (Tables 5, 7); assay type: biochemical; conditions: 100 μM p-Nph-5′-TMP as a substrate
T2 sequence (O14638 1-875): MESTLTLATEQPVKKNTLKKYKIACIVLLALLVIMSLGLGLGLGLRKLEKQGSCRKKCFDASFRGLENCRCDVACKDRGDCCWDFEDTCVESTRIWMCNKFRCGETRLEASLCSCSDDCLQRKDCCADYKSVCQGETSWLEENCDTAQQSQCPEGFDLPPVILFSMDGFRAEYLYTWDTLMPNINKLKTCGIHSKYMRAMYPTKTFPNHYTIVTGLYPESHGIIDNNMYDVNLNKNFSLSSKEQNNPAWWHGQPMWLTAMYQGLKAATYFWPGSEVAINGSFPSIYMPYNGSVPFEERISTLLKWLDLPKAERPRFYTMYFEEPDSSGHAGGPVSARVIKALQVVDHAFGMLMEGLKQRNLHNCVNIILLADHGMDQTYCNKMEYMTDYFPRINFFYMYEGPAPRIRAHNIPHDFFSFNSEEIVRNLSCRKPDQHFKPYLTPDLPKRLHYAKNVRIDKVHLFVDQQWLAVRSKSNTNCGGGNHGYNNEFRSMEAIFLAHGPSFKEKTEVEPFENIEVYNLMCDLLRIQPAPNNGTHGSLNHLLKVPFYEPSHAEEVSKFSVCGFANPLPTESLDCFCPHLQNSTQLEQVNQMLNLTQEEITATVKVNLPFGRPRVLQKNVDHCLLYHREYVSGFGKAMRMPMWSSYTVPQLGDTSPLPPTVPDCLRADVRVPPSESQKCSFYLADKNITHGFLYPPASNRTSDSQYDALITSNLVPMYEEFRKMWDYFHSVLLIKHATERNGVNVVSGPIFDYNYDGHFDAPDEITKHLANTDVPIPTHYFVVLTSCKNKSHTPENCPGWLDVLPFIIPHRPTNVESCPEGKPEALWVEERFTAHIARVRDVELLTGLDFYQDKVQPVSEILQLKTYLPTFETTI

[3] = molecular target: T3, NPP1 (Homo sapiens, UniProt P22413); conditions: literature value; cited from earlier work
T3 sequence (P22413 1-925): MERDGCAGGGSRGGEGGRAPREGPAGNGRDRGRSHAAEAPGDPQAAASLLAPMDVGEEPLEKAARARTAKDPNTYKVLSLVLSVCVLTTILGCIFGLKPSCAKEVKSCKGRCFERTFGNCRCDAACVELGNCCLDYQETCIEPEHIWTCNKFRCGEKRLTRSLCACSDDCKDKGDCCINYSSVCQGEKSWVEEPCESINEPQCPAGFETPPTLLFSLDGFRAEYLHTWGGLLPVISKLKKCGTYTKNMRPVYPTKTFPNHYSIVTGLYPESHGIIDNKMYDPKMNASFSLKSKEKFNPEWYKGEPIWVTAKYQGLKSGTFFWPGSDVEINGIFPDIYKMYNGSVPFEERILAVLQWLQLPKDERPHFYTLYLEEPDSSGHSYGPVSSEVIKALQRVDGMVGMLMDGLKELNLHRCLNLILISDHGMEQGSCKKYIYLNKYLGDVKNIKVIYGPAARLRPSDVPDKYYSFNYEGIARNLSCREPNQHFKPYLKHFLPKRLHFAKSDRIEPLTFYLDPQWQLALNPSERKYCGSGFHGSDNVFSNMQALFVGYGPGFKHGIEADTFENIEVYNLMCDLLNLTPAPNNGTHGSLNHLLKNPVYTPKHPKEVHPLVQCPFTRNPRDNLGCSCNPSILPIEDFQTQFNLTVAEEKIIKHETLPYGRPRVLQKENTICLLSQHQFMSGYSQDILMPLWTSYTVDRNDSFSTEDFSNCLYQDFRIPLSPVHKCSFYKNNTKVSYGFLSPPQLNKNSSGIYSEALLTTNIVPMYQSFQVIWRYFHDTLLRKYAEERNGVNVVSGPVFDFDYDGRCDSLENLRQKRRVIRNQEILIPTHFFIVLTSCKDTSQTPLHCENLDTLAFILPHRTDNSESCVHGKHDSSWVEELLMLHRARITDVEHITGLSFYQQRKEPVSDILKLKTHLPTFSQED

[4] = molecular target: T4, Human CD73 (Homo sapiens, UniProt P21589); conditions: literature value; cited from earlier work
T4 sequence (P21589 27-549): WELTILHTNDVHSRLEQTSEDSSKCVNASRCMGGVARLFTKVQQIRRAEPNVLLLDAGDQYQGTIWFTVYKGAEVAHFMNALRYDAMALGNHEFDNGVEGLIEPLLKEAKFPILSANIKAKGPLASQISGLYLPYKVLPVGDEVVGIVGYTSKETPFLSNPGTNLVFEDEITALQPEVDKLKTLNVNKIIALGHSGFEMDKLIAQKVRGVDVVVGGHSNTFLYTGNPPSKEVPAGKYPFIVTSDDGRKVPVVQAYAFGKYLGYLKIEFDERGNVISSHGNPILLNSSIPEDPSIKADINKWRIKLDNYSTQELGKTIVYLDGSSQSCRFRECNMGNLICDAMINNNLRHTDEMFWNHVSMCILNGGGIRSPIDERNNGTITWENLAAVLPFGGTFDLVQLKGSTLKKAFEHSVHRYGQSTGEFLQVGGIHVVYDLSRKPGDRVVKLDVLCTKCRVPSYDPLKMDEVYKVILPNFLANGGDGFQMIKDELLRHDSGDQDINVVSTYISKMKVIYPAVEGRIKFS

[5] = test system: primary human chondrocytes; test: Cell viability of primary human chondrocytes, XTT assay; assay type: cell-based; conditions: cultured primary human chondrocytes, 0.1 mM
Procedure: FIG. 11: Analogs 20-28 are not toxic to primary human chondrocytes. Chondrocytes were incubated with analogs 20-28 at the indicated concentrations for 24 h, and then cell viability was assessed by the XTT assay;
FIG. 15: The effects of analogs 106-109 on primary human chondrocytes. (A) Analogs 106-109 inhibit NPPase activity in primary chondrocytes. NPPase activity was assayed by measuring the hydrolysis of the chromogenic substrate, pnp-TMP. […] Alkaline phosphatase activity was assayed by hydrolysis of p-nitrophenyl phosphate. (C) Analogs 106-109 are not toxic to cultured chondrocytes at a concentration of 0.1 mM. Cell viability was assessed by the XTT assay. Mean (columns) and SD (error bars) of triplicate cell culture experiments are shown.
A prerequisite for the application of inhibitors 20-28 as therapeutic agents is the lack of toxicity. For this purpose, primary human chondrocytes were cultured with analogs 20-28 at a high concentration of 1 mM for 24 h. Thereafter, cell viability was measured relative to untreated controls by the XTT assay and is represented on FIG. 11. No significant decrease in cell's viability was discernible at concentrations of up to 1 mM.

[6] = molecular target: T3, NPP1; test: Inhibition of human NPP1, 100 μM p-Nph-5′-TMP as substrate (Tables 5, 6); conditions: for inhibition at 10 µM: read-out: % inhibition ± SEM at 10 μM, human NPP1
[7] = molecular target: T3, NPP1; test: Inhibition of human NPP1, 100 μM ATP as substrate (FIG. 9, Table 6); assay type: biochemical; conditions: for inhibition at 10 µM: n = 3, read-out: % inhibition ± SEM at 10 μM, human NPP1
Procedure: Each experiment was performed in triplicates;

[8] = molecular target: T2, human NPP3; conditions: literature value; cited from earlier work
[9] = molecular target: T1, Human CD39 (NTPDase1); conditions: literature value; cited from earlier work
[10] = molecular target: T5, human CD39 (Homo sapiens, UniProt P49961); test: Inhibition of human CD39, 0.5 μM PSB-170621A as substrate; assay type: biochemical; conditions: 0.5 μM PSB-170621A as a substrate; n = 3
T5 sequence (P49961 1-510): T1 sequence (P49961 1-510)

[11] = molecular target: T6, human P2Y1R (Homo sapiens, UniProt P47900); test: Calcium mobilization in 1321N1 astrocytoma cells expressing human P2Y1R; assay type: cell-based
T6 construct: expressed in transfected cells; host or cells: 1321N1 astrocytoma cells
Procedure: (§1) Given the structural resemblance of 106-109 to the natural ligands of P2Y receptors, adenine and uracil nucleotides as natural substrates, were assessed for agonist potency on the human P2Y1, P2Y2, P2Y4, and P2Y6 receptor. To evaluate NPP1 selectivity of analogs 106-109, they were tested for their ability to activate of the uridine-nucleotide sensitive human recombinant P2Y1,2,4,6-receptors. The agonist potencies of this series of nucleotide analogues on the Gq protein-coupled human P2Y1R, P2Y2R, P2Y4R, and P2Y6R was determined by assessing its ability to induce calcium mobilization in stably transfected 1321N1 astrocytoma cells (Table 8). The nucleotide analogues were found in calcium mobilization assays to activate the P2Y2R with mid-micromolar potency.

[12] = molecular target: T7, human P2Y2R (Homo sapiens, UniProt P41231); test: Calcium mobilization in 1321N1 astrocytoma cells expressing human P2Y2R; assay type: cell-based
T7 construct: expressed in transfected cells; host or cells: 1321N1 astrocytoma cells
Procedure: as §1

[13] = molecular target: T8, human P2Y4R (Homo sapiens, UniProt P51582); test: Calcium mobilization in 1321N1 astrocytoma cells expressing human P2Y4R; assay type: cell-based
T8 construct: expressed in transfected cells; host or cells: 1321N1 astrocytoma cells
Procedure: as §1

[14] = molecular target: P2Y6R (Homo sapiens, UniProt Q15077); test: Calcium mobilization in 1321N1 astrocytoma cells expressing human P2Y6R; assay type: cell-based; set-up: expressed in transfected cells; host or cells: 1321N1 astrocytoma cells (stably transfected)
Procedure: as §1

[15] = 10 μM, inactive = no inhibition at 10 μM

T6 sequence (P47900 whole entry): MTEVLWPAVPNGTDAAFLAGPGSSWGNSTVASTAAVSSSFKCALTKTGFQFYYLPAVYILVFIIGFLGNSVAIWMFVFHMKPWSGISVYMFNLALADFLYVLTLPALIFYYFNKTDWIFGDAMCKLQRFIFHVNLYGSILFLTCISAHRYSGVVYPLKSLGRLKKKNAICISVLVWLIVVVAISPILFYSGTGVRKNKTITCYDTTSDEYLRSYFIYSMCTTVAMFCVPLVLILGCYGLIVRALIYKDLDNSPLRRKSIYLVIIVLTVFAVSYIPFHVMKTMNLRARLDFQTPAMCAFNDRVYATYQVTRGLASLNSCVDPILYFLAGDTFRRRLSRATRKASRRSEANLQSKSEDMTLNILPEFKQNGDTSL
T7 sequence (P41231 whole entry): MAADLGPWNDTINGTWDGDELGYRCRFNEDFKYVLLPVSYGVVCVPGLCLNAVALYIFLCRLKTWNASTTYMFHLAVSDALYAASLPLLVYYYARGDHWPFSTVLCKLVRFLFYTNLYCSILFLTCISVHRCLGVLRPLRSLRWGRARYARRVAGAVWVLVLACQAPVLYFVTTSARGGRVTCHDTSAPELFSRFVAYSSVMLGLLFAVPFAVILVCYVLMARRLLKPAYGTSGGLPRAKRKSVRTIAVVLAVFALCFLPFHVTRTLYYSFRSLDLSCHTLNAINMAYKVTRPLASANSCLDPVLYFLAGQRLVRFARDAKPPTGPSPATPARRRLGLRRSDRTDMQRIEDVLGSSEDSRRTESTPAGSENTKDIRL
T8 sequence (P51582 whole entry): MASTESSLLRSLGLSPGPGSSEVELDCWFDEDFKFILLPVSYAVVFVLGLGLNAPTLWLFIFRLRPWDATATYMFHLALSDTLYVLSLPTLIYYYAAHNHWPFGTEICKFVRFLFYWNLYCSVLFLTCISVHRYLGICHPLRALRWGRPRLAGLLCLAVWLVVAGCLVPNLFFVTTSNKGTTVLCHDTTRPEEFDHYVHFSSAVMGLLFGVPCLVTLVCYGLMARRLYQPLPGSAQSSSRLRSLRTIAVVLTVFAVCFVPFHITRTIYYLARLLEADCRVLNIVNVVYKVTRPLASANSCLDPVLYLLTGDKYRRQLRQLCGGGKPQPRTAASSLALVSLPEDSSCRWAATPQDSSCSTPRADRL
Sequence of P2Y6R (Q15077 whole entry): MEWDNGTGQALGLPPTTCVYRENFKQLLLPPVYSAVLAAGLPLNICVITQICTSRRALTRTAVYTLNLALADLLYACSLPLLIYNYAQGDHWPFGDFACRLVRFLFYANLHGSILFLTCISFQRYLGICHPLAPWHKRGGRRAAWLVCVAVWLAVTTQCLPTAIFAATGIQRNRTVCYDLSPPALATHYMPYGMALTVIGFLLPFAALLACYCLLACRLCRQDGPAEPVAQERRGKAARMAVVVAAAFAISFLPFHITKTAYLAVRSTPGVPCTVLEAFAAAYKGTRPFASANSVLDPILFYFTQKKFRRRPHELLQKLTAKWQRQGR

Compound | cell viability (XTT), toxicity [5] | % activation at 10 μM, P2Y1 [11] [%] | % activation at 10 μM, P2Y2 [12] [%] | % activation at 10 μM, P2Y4 [13] [%] | Ki [6] [µM] | inhibition at 10 µM [6] [%] | % activation at 10 μM, P2Y6 [14] [%] | inhibition at 10 µM ([7]; ATP (100 μM) as a substrate) [%] | also measured
Nc1ncnc2c1ncn2[C@@H]1O[C@H](COP(=O)(O)CP(=O)(O)O)[C@@H](O)[C@H]1O [AOPCP, reference compound] | – | – | – | – | – | – | – | – | % inhibition ± SD at 10 μM, Human CD39 (NTPDase1) [1, 15]: 12 ± 5%; Ki ([1]; read-out: Ki ± SD (μM), Human CD39 (NTPDase1)): > 10 µM; % inhibition ± SD at 10 μM, Human NPP3 [2, 15]: inactived; Ki [3]: 1.28 to 16.5 µM; Ki [4]: 0.197 µM
Nc1ncnc2c1ncn2COCCOP(=S)(S)OP(=O)(O)O (stereo not drawn) [Analogue 106] | slightly increase cell survival | – | – | – | – | – | – | – | –
Nc1ncnc2c1ncn2COCCOP(=S)(S)OP(=O)(O)OP(=O)(O)O (stereo not drawn) [Analogue 107] | slightly increase cell survival | – | – | – | – | – | – | – | inhibition type (Lineweaver-Burk plot) ([6]; vs p-Nph-5′-TMP, […]): non-competitive inhibition; inhibition type (Lineweaver-Burk plot) ([7]; vs ATP, α value of ~1): non-competitive inhibition
Nc1ncnc2c1ncn2COCCOP(=S)(S)OP(=O)(O)C(Cl)(Cl)P(=O)(O)O (stereo not drawn) [Analogue 109] | slightly increase cell survival | – | – | – | – | – | – | – | –
Nc1c(S(=O)(=O)O)cc(Nc2ccc(Nc3nc(Cl)nc(Nc4cccc(S(=O)(=O)O)c4)n3)c(S(=O)(=O)O)c2)c2c1C(=O)c1ccccc1C2=O [Reactive Blue 2] | – | – | – | – | – | – | – | – | Ki [8]: 0.71 µM; Ki [3]: 0.52 µM; Ki [4]: 3.07 µM; Ki [9]: 20 µM
Cc1ccc(C(=O)Nc2ccc(S(=O)(=O)O)c3cc(S(=O)(=O)O)cc(S(=O)(=O)O)c23)cc1NC(=O)c1cccc(NC(=O)Nc2cccc(C(=O)Nc3cc(C(=O)Nc4ccc(S(=O)(=O)O)c5cc(S(=O)(=O)O)cc(S(=O)(=O)O)c45)ccc3C)c2)c1 [Suramin] | – | – | – | – | – | – | – | – | Ki [9]: 300 µM
Nc1ncnc2c1ncn2COCCOP(=S)(S)OP(=O)(O)OP(=O)(O)O (stereo not drawn) [compound 107] | – | −1 ± 1 | 39 ± 13 | −2 ± 2 | 1.98 | 74 ± 1 | −5 ± 3 | 66 ± 1 | % inhibition ± SEM, human CD39 [10]: 28 ± 1%; % inhibition ± SEM, human NPP3 ([2]; n = 3): 17 ± 1%; Ki ([7]; ATP (100 μM) as a substrate, read-out: Ki (μM ± SD), human NPP1 (converted)): 0.334 µM
Nc1ncnc2c1ncn2COCCOP(=S)(S)OP(=O)(O)CP(=O)(O)O (stereo not drawn) [compound 108] | – | 0 ± 1 | 44 ± 9 | −2 ± 1 | 2.16 | 65 ± 1 | −8 ± 2 | 16 ± 3 | –
Nc1ncnc2c1ncn2COCCOP(=S)(S)OP(=O)(O)C(Cl)(Cl)P(=O)(O)O (stereo not drawn) [compound 109] | – | −2 ± 1 | 21 ± 5 | 0 ± 2 | 0.698 | 85 ± 2 | 2 ± 4 | 37 ± 1 | –
